pEC50: −log10 of the molar value. Read-outs that look alike come from different tables or passages of the source.
Assays:
[1] = test system: HIV-1 clinical isolated, characterised by mutations on the protease gene inducing geno-phenotypic resistance to NFV; experiment: p24 production susceptibility test, Table 10, H-9 cells; format: cell-based; settings: for S.I. HCQ / Fen. HCQ (fold): H-9; for S.I. HCQ: I.C.50/E.C.50; for Fen. HCQ (fold): ratio to HIV-IIIB; for pEC50: Human immunodeficiency virus 1, H9, H-9, read-out: E.C.50 HCQ
Description: (§1) For the phenotype of the nucleosidic, non-nucleosidic and proteases inhibitors was utilised a method which consider the use of human PBMC and the protocol standardised by the AIDS Clinical Trials Group, after verifying the genotype by sequence analysis.
(§2) In order to assay in vitro the susceptibility to chloroquine and hydroxychloroquine of the viral strains, it was used the protocol of the ACTG which is characterised by the measure, of the production of antigen p24 in strongly infected cells.
(§3) The susceptibility of the viral strains to chemotherapics was determined in cell cultures, prepared in 96 wells microplates, using, for the infection, 0.1 MOI.
(§4) The supernatant of the infected cultures (either in absence or in presence of different concentrations of chemotherapic) were tested for the production of p24 after 7 days, using an ELISA test which is commercially available.
(§5) The concentrations of chloroquine and hydroxychloroquine tested ranged from 0.5 to 15 uM. At the same time non-infected cells were incubated with concentrations of chloroquine and hydroxychloroquine ranging from 0 to 50 uM to evaluate the toxicity of the compound.
(§6) After 4 day from the infection, half the cellular medium was replaced with a medium containing the corresponding dilution of chloroquine and hydroxychloroquine. The percentage of inhibition of the HIV replication, induced by chloroquine and hydroxychloroquine, was determined, after 7 day from the infection, comparing the levels of p24 of this cultures and that of the control, infected and not treated with chloroquine and hydroxychloroquine.
(§7) Therefore, the E.C.50 of chloroquine and hydroxychloroquine expresses the concentration of chemotherapic that inhibits the 50% of production of p24 and the values were calculated using linear and non linear regression analysis (the significativity for the non linear regression was R^2>0.95).
(§8) In the same experimental conditions and in the same day, but with similar concentrations of chloroquine and hydroxychloroquine, it was evaluated the vitality of the infect cell cultures, and this was expressed as I.C.50.
(§9) I.C.50 (Inhibitory Concentration) indicates the concentration of the chemotherapic agent inhibiting the vitality of the cell cultures at a rate of 50%, when there is not infection.

[2] = test system: HIV clinical isolated, characterised by mutations in the RT gene inducing geno-phenotypic resistance to AZT; experiment: p24 production susceptibility test (ACTG protocol), Table 1; format: cell-based, HIV-1; settings: for pEC50 / S.I. HCQ / Fen. HCQ (fold): PBMC; for pEC50: read-out: E:C.50 HCQ; for S.I. HCQ: I.C.50/E.C.50; for Fen. HCQ (fold): ratio to HIV-IIIB
Description: as §1, §2, §3, §4, §5, §6, §7, §8, §9

[3] = test system: HIV clinical isolated, characterised by mutations in the RT gene inducing geno-phenotypic resistance to ddI; experiment: p24 production susceptibility test (ACTG protocol), Table 2; format: cell-based, HIV-1; settings: for pEC50: Human immunodeficiency virus 1, PBMC, read-out: E.C.50 HCQ; for S.I. HCQ / Fen HCQ (fold): PBMC; for S.I. HCQ: I.C.50/E.C.50; for Fen HCQ (fold): ratio to HIV-IIIB
Description: as §1, §2, §3, §4, §5, §6, §7, §8, §9

[4] = test system: HIV-1 clinical isolated, characterised by mutations in the protease gene inducing geno-phenotypic resistance to SQV; experiment: p24 production susceptibility test (ACTG protocol), Table 8; format: cell-based; settings: for pEC50: Human immunodeficiency virus 1, PBMC, read-out: E.C.50 HCQ; for S.I. HCQ / Fen. HCQ (fold): PBMC; for S.I. HCQ: I.C.50/E.C.50; for Fen. HCQ (fold): ratio to HIV-IIIB
Description: as §1, §2, §3, §4, §5, §6, §7, §8, §9

[5] = test system: HIV-1 clinical isolated, characterised by mutations in the RT gene inducing geno-phenotypic resistance to ABC; experiment: p24 production susceptibility test (ACTG protocol), Table 5; format: cell-based; settings: for pEC50: Human immunodeficiency virus 1, PBMC, read-out: E.C.50 HCQ; for S.I. HCQ / Fen. HCQ (fold): PBMC; for S.I. HCQ: I.C.50/E.C.50; for Fen. HCQ (fold): ratio to HIV-IIIB
Description: as §1, §2, §3, §4, §5, §6, §7, §8, §9

[6] = test system: HIV-1 clinical isolated, characterised by mutations in the protease gene inducing geno-phenotypic resistance to IDV; experiment: p24 production susceptibility test (ACTG protocol), Table 9; format: cell-based; settings: for pEC50 / S.I. HCQ / Fen. HCQ (fold): PBMC; for pEC50: read-out: E.C.50 HCQ; for S.I. HCQ: I.C.50/E.C.50; for Fen. HCQ (fold): ratio to HIV-IIIB
Description: as §1, §2, §3, §4, §5, §6, §7, §8, §9

[7] = Gen. M41I M184V L210W R221K T215Y
[8] = Gen. M41L D67N K70RM 184V T215F
[9] = Gen M4IL M184V L210W R211KL 214F T215Y
[10] = Gen. K65R S68G F77L Y115F Q151M M184V
[11] = Gen. M41L D67N M184V L210W T215Y

What does the source list for `CCN(CCO)CCCC(C)Nc1ccnc2cc(Cl)ccc12` (stereo not drawn) [HCQ, hydroxychloroquine]?
S.I. HCQ ([1]; Gen. D30N): 4.4; Fen. HCQ (fold) ([1]; Gen. D30N): 1.2X fold; S.I. HCQ ([1]; Gen. V82A): 5.5; Fen. HCQ (fold) ([1]; Gen. V82A): 1.3X fold; pEC50 ([1]; Gen. D30N): 5.66; pEC50 ([1]; Gen. V82A): 5.60; pEC50 ([2]; Human immunodeficiency virus 1, PBMC, Gen. D67N K70R T215F K219Q): 5.70; pEC50 ([2]; Human immunodeficiency virus 1, PBMC, Gen. D 67 Ns K 70N T215F K219Q): 5.60; pEC50 ([2]; Human immunodeficiency virus 1, PBMC, Gen. K70R T215F K219Q): 5.70; pEC50 ([2]; Human immunodeficiency virus 1, PBMC, Gen. M41I M184V L210W R221K T215Y): 6.00; pEC50 ([2]; Human immunodeficiency virus 1, PBMC, Gen. M41I T215Y): 5.60; pEC50 ([2]; Human immunodeficiency virus 1, PBMC, Gen. M41L D67N K70RM 184V T215F): 5.60; EC50 ([2]; Human immunodeficiency virus 1, PBMC, read-out: E:C.50 HCQ (uM), PBMC, Gen. M41LD 76N K70R T215Y): 2.8 µM; S.I. HCQ ([2]; Gen. D67N K70R T215F K219Q): 4; Fen. HCQ (fold) ([2]; Gen. D67N K70R T215F K219Q): 1.1X fold; S.I. HCQ ([2]; Gen. D 67 Ns K 70N T215F K219Q): 3.6; Fen. HCQ (fold) ([2]; Gen. D 67 Ns K 70N T215F K219Q): 1.6X fold; S.I. HCQ ([2]; Gen. K70R T215F K219Q): 5; Fen. HCQ (fold) ([2]; Gen. K70R T215F K219Q): 1.1X fold; S.I. HCQ [2, 7]: 7; Fen. HCQ (fold) [2, 7]: 0.5X fold; S.I. HCQ ([2]; Gen. M41I T215Y): 4.5; Fen. HCQ (fold) ([2]; Gen. M41I T215Y): 1.3X fold; S.I. HCQ [2, 8]: 3.6; Fen. HCQ (fold) [2, 8]: 1.3X fold; S.I. HCQ ([2]; Gen. M41LD 76N K70R T215Y): 3.4; Fen. HCQ (fold) ([2]; Gen. M41LD 76N K70R T215Y): 1.5X fold; pEC50 ([3]; Gen D67N K70R M184V T215Y): 5.60; pEC50 ([3]; Gen D67N K70R T215F K70R): 5.60; pEC50 ([3]; Gen K70R T215F K219Q): 5.70; pEC50 [3, 9]: 5.60; pEC50 ([3]; Gen M41I T215F): 5.60; pEC50 ([3]; Gen M41L D67N K70R M184V T215Y): 5.60; pEC50 ([3]; Gen M41L D67N K70R T215Y): 5.55; S.I. HCQ ([3]; Gen D67N K70R M184V T215Y): 4.5; Fen HCQ (fold) ([3]; Gen D67N K70R M184V T215Y): 1.3X fold; S.I. HCQ ([3]; Gen D67N K70R T215F K70R): 3.4; Fen HCQ (fold) ([3]; Gen D67N K70R T215F K70R): 1.1X fold; S.I. HCQ ([3]; Gen K70R T215F K219Q): 5; Fen HCQ (fold) ([3]; Gen K70R T215F K219Q): 0.8X fold; S.I. HCQ [3, 9]: 4; Fen HCQ (fold) [3, 9]: 1.3X fold; S.I. HCQ ([3]; Gen M41I T215F): 4.5; Fen HCQ (fold) ([3]; Gen M41I T215F): 1.3X fold; S.I. HCQ ([3]; Gen M41L D67N K70R M184V T215Y): 3.6; Fen HCQ (fold) ([3]; Gen M41L D67N K70R M184V T215Y): 1.3X fold; S.I. HCQ ([3]; Gen M41L D67N K70R T215Y): 3.4; Fen HCQ (fold) ([3]; Gen M41L D67N K70R T215Y): 1.1X fold; pEC50 ([4]; Gen. G48V I84V A74V L90M): 5.82; pEC50 ([4]; Gen. G48V V82A): 5.52; pEC50 ([4]; Gen. I84V L90M): 5.55; pEC50 ([4]; Gen. M46I G48V L63P L90M): 5.74; pEC50 ([4]; Gen. V82A L90M): 5.74; S.I. HCQ ([4]; Gen. G48V I84V A74V L90M): 4; Fen. HCQ (fold) ([4]; Gen. G48V I84V A74V L90M): 0.8X fold; S.I. HCQ ([4]; Gen. G48V V82A): 3; Fen. HCQ (fold) ([4]; Gen. G48V V82A): 1.6X fold; S.I. HCQ ([4]; Gen. I84V L90M): 3; Fen. HCQ (fold) ([4]; Gen. I84V L90M): 1.5X fold; S.I. HCQ ([4]; Gen. M46I G48V L63P L90M): 6; Fen. HCQ (fold) ([4]; Gen. M46I G48V L63P L90M): 1X fold; S.I. HCQ ([4]; Gen. V82A L90M): 5.5; Fen. HCQ (fold) ([4]; Gen. V82A L90M): 1X fold; pEC50 ([5]; Gen. K65R L74V M184V): 5.82; pEC50 [5, 10]: 5.66; pEC50 ([5]; Gen. L74V M184F): 5.66; pEC50 ([5]; Gen. L74V Y115F M184V): 5.60; pEC50 [5, 11]: 5.74; S.I. HCQ ([5]; Gen. K65R L74V M184V): 6; Fen. HCQ (fold) ([5]; Gen. K65R L74V M184V): 1X fold; S.I. HCQ [5, 10]: 4; Fen. HCQ (fold) [5, 10]: 1.4X fold; S.I. HCQ ([5]; Gen. L74V M184F): 4; Fen. HCQ (fold) ([5]; Gen. L74V M184F): 1.4X fold; S.I. HCQ ([5]; Gen. L74V Y115F M184V): 3.6; Fen. HCQ (fold) ([5]; Gen. L74V Y115F M184V): 1.3X fold; S.I. HCQ [5, 11]: 5.5; Fen. HCQ (fold) [5, 11]: 1.2X fold; pEC50 ([6]; Human immunodeficiency virus 1, PBMC, Gen. G48V V82A): 5.55; pEC50 ([6]; Human immunodeficiency virus 1, PBMC, Gen. I84V L90M): 5.74; pEC50 ([6]; Human immunodeficiency virus 1, PBMC, Gen. K20R E35D M36I I54V V82T): 5.66; pEC50 ([6]; Human immunodeficiency virus 1, PBMC, Gen. V82F L90M): 5.48; EC50 ([6]; Human immunodeficiency virus 1, PBMC, read-out: E.C.50 HCQ (uM), PBMC, Gen. L10R M46I L63P V82T): 1.8 µM; S.I. HCQ ([6]; Gen. G48V V82A): 3; Fen. HCQ (fold) ([6]; Gen. G48V V82A): 1.5X fold; S.I. HCQ ([6]; Gen. I84V L90M): 5.5; Fen. HCQ (fold) ([6]; Gen. I84V L90M): 1X fold; S.I. HCQ ([6]; Gen. K20R E35D M36I I54V V82T): 4.5; Fen. HCQ (fold) ([6]; Gen. K20R E35D M36I I54V V82T): 1.2X fold; S.I. HCQ ([6]; Gen. L10R M46I L63P V82T): 5; Fen. HCQ (fold) ([6]; Gen. L10R M46I L63P V82T): 0.8X fold; S.I. HCQ ([6]; Gen. V82F L90M): 2.5; Fen. HCQ (fold) ([6]; Gen. V82F L90M): 1.7X fold
